From PubChem BioAssay AID236 (DTP/NCI, 2004)
Several values for one entry are separate records, joined by “and”; a condition that tells them apart may be missing. Equal entries are not always repeated. Inconclusive results and toxic doses are left out.

System: AK4 lymphoid leukemia ip, C3AKF1 mice, survival
Assay: NCI In Vivo Anticancer Drug Screen. Data for tumor model AK4 Lymphoid Leukemia (intraperitoneal) in C3AKF1 (CHKRF1) mice
Conditions: endpoint: median survival time, higher = longer survival
Method: The antitumor activity of compounds was measured in mice bearing transplantable tumors. Survival or tumor size were measured and the results are expressed as the measurement made in the treated group (T) divided by the measurement made in the vehicle treated control group (C). The tumor model used in this assay is AK4 Lymphoid Leukemia (intraperitoneal) in C3AKF1 (CHKRF1) mice

[1] = dose: 125.0 mg/kg/injection, schedule: Q01DX010 (ip), vehicle: saline
[2] = dose: 250.0 mg/kg/injection, schedule: Q01DX010 (ip), vehicle: saline
[3] = dose: 500.0 mg/kg/injection, schedule: Q01DX010 (ip), vehicle: saline
[4] = dose: 1000.0 mg/kg/injection, schedule: Q01DX010 (ip), vehicle: saline

**Q.** For S=P(N1CC1)(N1CC1)N1CC1, which T/C (dose: 0.75 mg/kg/injection, schedule: Q01DX010 (ip), vehicle: saline) is on record?
**A.** 104 % of control and 105 % of control

**Q.** What about the T/C (dose: 1.5 mg/kg/injection, schedule: Q01DX010 (ip), vehicle: saline) of the same compound?
**A.** 100 % of control and 105 % of control

**Q.** What about the T/C (dose: 3.0 mg/kg/injection, schedule: Q01DX010 (ip), vehicle: saline) of the same compound?
**A.** 95 % of control and 104 % of control

**Q.** What about the T/C (dose: 6.0 mg/kg/injection, schedule: Q01DX010 (ip), vehicle: saline) of the same compound?
**A.** 105 % of control and 109 % of control

**Q.** With O=C(Nc1ccc(NC2=NCCN2)cc1)c1ccc(C(=O)Nc2ccc(NC3=NCCN3)cc2)cc1 as the compound, how does the T/C (dose: 2.0 mg/kg/injection, schedule: Q01DX010 (ip), vehicle: saline) read?
**A.** 95 % of control and 105 % of control

**Q.** And the T/C (dose: 4.0 mg/kg/injection, schedule: Q01DX010 (ip), vehicle: saline)?
**A.** 90 % of control and 110 % of control

**Q.** And the T/C (dose: 8.0 mg/kg/injection, schedule: Q01DX010 (ip), vehicle: saline)?
**A.** 110 % of control

**Q.** And the T/C (dose: 16.0 mg/kg/injection, schedule: Q01DX010 (ip), vehicle: saline)?
**A.** 150 % of control

**Q.** For Nc1nc2n[nH]nc2c(=O)[nH]1, which T/C (dose: 25.0 mg/kg/injection, schedule: Q01DX010 (ip), vehicle: alkali diluted with saline) is on record?
**A.** 100 % of control and 115 % of control

**Q.** And the T/C (dose: 50.0 mg/kg/injection, schedule: Q01DX010 (ip), vehicle: alkali diluted with saline)?
**A.** 105 % of control and 120 % of control

**Q.** What about the T/C (dose: 100.0 mg/kg/injection, schedule: Q01DX010 (ip), vehicle: alkali diluted with saline) of the same compound?
**A.** 100 % of control and 110 % of control

**Q.** And the T/C (dose: 200.0 mg/kg/injection, schedule: Q01DX010 (ip), vehicle: alkali diluted with saline)?
**A.** 100 % of control and 110 % of control

**Q.** What does the source list for CCN(CC)C(=S)S?
**A.** T/C [1]: 87 % of control; T/C [2]: 87 % of control; T/C [3]: 87 % of control; T/C [4]: 93 % of control

**Q.** C[N+](C)(C)c1ncnc2nc[nH]c12 was tested. Which T/C (dose: 15.0 mg/kg/injection, schedule: Q01DX010 (ip), vehicle: saline) did it give?
**A.** 100 % of control

**Q.** And the T/C (dose: 30.0 mg/kg/injection, schedule: Q01DX010 (ip), vehicle: saline)?
**A.** 116 % of control

**Q.** And the T/C (dose: 60.0 mg/kg/injection, schedule: Q01DX010 (ip), vehicle: saline)?
**A.** 111 % of control

**Q.** What about the T/C (dose: 120.0 mg/kg/injection, schedule: Q01DX010 (ip), vehicle: saline) of the same compound?
**A.** 88 % of control

**Q.** How did the T/C (dose: 15.6 mg/kg/injection, schedule: Q01DX010 (ip), vehicle: saline) turn out when CCn1cnc2c(=S)nc[nH]c21 was run?
**A.** 100 % of control

**Q.** And the T/C (dose: 31.3 mg/kg/injection, schedule: Q01DX010 (ip), vehicle: saline)?
**A.** 88 % of control

**Q.** And the T/C (dose: 62.5 mg/kg/injection, schedule: Q01DX010 (ip), vehicle: saline)?
**A.** 88 % of control

**Q.** What about the T/C [1] of the same compound?
**A.** 105 % of control

**Q.** What does the source list for CN(Cc1cnc2nc(N)nc(N)c2n1)c1ccc(C(=O)N[C@@H](CCC(=O)O)C(=O)O)cc1?
**A.** T/C (dose: 0.19 mg/kg/injection, schedule: Q01DX Z (ip), vehicle: saline): 120 % of control; T/C (dose: 0.38 mg/kg/injection, schedule: Q01DX010 (ip), vehicle: other): 155 % of control and 181 % of control; T/C (dose: 0.38 mg/kg/injection, schedule: Q01DX Z (ip), vehicle: saline): 180 % of control; T/C (dose: 0.75 mg/kg/injection, schedule: Q01DX010 (ip), vehicle: other): 160 % of control and 181 % of control; T/C (dose: 0.75 mg/kg/injection, schedule: Q01DX Z (ip), vehicle: saline): 253 % of control and 361 % of control; T/C (dose: 1.5 mg/kg/injection, schedule: Q01DX010 (ip), vehicle: other): 185 % of control and 256 % of control; T/C (dose: 3.0 mg/kg/injection, schedule: Q01DX010 (ip), vehicle: other): 175 % of control

**Q.** CCC(=O)O[C@H]1CC[C@H]2[C@@H]3CCC4=CC(=O)CC[C@]4(C)[C@H]3CC[C@]12C was tested. Which T/C (dose: 125.0 mg/kg/injection, schedule: Q01DX010 (sc), vehicle: steriod suspending solution) did it give?
**A.** 87 % of control

**Q.** What about the T/C (dose: 250.0 mg/kg/injection, schedule: Q01DX010 (sc), vehicle: steriod suspending solution) of the same compound?
**A.** 87 % of control

**Q.** What about the T/C (dose: 500.0 mg/kg/injection, schedule: Q01DX010 (sc), vehicle: steriod suspending solution) of the same compound?
**A.** 93 % of control

**Q.** What about the T/C (dose: 1000.0 mg/kg/injection, schedule: Q01DX010 (sc), vehicle: steriod suspending solution) of the same compound?
**A.** 87 % of control

**Q.** How did the T/C [1] turn out when Cc1n[nH]c(=O)[nH]c1=O was run?
**A.** 87 % of control

**Q.** What about the T/C [2] of the same compound?
**A.** 100 % of control

**Q.** What about the T/C [3] of the same compound?
**A.** 87 % of control

**Q.** What about the T/C [4] of the same compound?
**A.** 87 % of control

**Q.** What does the source list for CS(=O)(=O)OCC(O)C(O)C(O)C(O)COS(C)(=O)=O (stereo not drawn)?
**A.** T/C (dose: 12.5 mg/kg/injection, schedule: Q01DX010 (ip), vehicle: saline): 112 % of control; T/C (dose: 25.0 mg/kg/injection, schedule: Q01DX010 (ip), vehicle: saline): 100 % of control and 105 % of control; T/C (dose: 50.0 mg/kg/injection, schedule: Q01DX010 (ip), vehicle: saline): 94 % of control; T/C (dose: 100.0 mg/kg/injection, schedule: Q01DX010 (ip), vehicle: saline): 87 % of control and 100 % of control; T/C (dose: 200.0 mg/kg/injection, schedule: Q01DX010 (ip), vehicle: saline): 100 % of control

**Q.** Which T/C (dose: 1.25 mg/kg/injection, schedule: Q01DX010 (ip), vehicle: other) does the source give for Nc1nc(=S)c2[nH]cnc2[nH]1 here?
**A.** 100 % of control and 114 % of control

**Q.** What about the T/C (dose: 2.5 mg/kg/injection, schedule: Q01DX010 (ip), vehicle: other) of the same compound?
**A.** 93 % of control and 114 % of control

**Q.** What about the T/C (dose: 5.0 mg/kg/injection, schedule: Q01DX010 (ip), vehicle: other) of the same compound?
**A.** 112 % of control

**Q.** What about the T/C (dose: 10.0 mg/kg/injection, schedule: Q01DX010 (ip), vehicle: other) of the same compound?
**A.** 106 % of control
